# Article PMC8540097, “Novel Oleanolic Acid-Tryptamine and -Fluorotryptamine Amides: From Adaptogens to Agents Targeting In Vitro Cell Apoptosis” (Plants, 2021)
# Several values for one entry are separate records, joined by “and”; a condition that tells them apart may be missing. Equal values may be shown once. Read-outs that look alike come from different tables or passages of the source.
# Key:
# [1] = tested on: HeLa (cervical carcinoma); assay: Cytotoxicity screening test, HeLa cells (resazurin, 72 h); assay type: cell-based, human
# Method: (§1) The screening human cancer cell lines used in this investigation were CEM (T-lymphoblastic leukemia), MCF7 (breast carcinoma), HeLa (cervical carcinoma) and G-361 (malignant melanoma) from the European Collection of Authenticated Cell Cultures (Salisbury, UK). Human foreskin fibroblasts (BJ) were used as reference cells, and they were a kind gift from Prof. Bartek from Danish Cancer Society Center (Copenhagen, Denmark). Cells were cultured in DMEM (Dulbecco’s Modified Eagle Medium) or in RPMI 1640 medium (CEM). Media used were supplemented with 10% fetal or 20% (CEM) bovine serum, L-glutamine (2 mM), and 1% penicillin-streptomycin mixture (all from Sigma, MO, USA). The cell lines were maintained under standard cell culture conditions at 37 °C and 5% CO2 in a humid environment. Cells were subcultured twice or three times a week using the standard trypsinization procedure. A description of the experimental procedure used in the cytotoxicity screening tests was already published. The cell viability was measured after 72 h using resazurin (Sigma, St. Louis, MO, USA).
# [2] = tested on: G-361 (malignant melanoma); assay: Cytotoxicity screening test, G-361 cells (resazurin, 72 h); assay type: cell-based, human
# Method: as §1
# [3] = tested on: MCF7 (breast carcinoma); assay: Cytotoxicity screening test, MCF7 cells (resazurin, 72 h); assay type: cell-based, human
# Method: as §1
# [4] = tested on: cervical carcinoma cells (HeLa); assay: Flow cytometric analysis of cell cycle and apoptosis, HeLa cells; assay type: cell-based, human; details: 24 h
# Method: (§2) A flow cytometric analysis, SDS–polyacrylamide gel electrophoresis and immunoblotting, and activities of caspase-3/7 were used to detect apoptosis in cervical carcinoma cells (HeLa) and malignant melanoma cells (G-361) treated for 24 h with 3a–3c (c = 3, 10 and 30 µM). The DNA content of HeLa or G-361 treated with 3a–3c for 24 h were analyzed using flow cytometry. Cells (HeLa and G-361), treated with the same concentrations of compounds for 24 h, were analyzed using electrophoresis and Western blotting, and the activity of caspase-3/7 by the standard methods. All experimental details of these methods were described in our recent paper.
# Figure 1 Flow cytometric analysis of cell cycle of HeLa cancer cells (A) and apoptosis (B). Flow cytometric analysis of cell cycle (A) and apoptosis (B) of human cervical carcinoma cells (HeLa) after 24 h with 3a–3c (3, 10 and 30 µM). The bars 0 means control untreated cells, the bars 0+ means control with DMSO. The experiment was repeated at least twice in triplicates. All data were analyzed by statistical software. Significance is indicated with an asterisk (*) (p ˂ 0.05).
# [5] = tested on: caspase-3/7 in HeLa cells; assay: Activity of caspase-3/7 in HeLa cells; assay type: cell-based, human; details: 24 h, c = 30 µM, versus control
# Method: as §2
# Figure 3 Activity of caspase-3/7. Activity of caspase-3/7 after 24 h treatment with 3a–3c (3, 10 and 30 µM) in HeLa cells. The bars 0 are control untreated cells, the bars 0+ are control cells with DMSO. The experiment was repeated at least twice in duplicates. All data were analyzed by statistical software. Significance is indicated with an asterisk (*) (p ˂ 0.05).
# [6] = Cytotoxicity screening test, BJ reference fibroblasts (resazurin, 72 h); assay type: cell-based; details: human, BJ foreskin fibroblasts (normal reference cells)
# Method: as §1
# [7] = tested on: CEM (T-lymphoblastic leukemia); assay: Cytotoxicity screening test, CEM cells (resazurin, 72 h); assay type: cell-based; details: Homo sapiens, CCRF-CEM
# Method: as §1
# [8] = tested on: malignant melanoma cells (G-361); assay: Flow cytometric analysis of cell cycle and apoptosis, G-361 cells; assay type: cell-based, human; details: G-361, 24 h
# Method: as §2
# 3. Apoptosis in human cancer cells.
# A detailed description of investigation of apoptosis in the HeLa and G-361 cancer cells is given in the main text of this paper. Because the results achieved with the G-361 cancer cells appeared to be less pronounced than those achieved with the HeLa cells, Figures S1A, S1B, S2 and S3 showing the results with G-361 cells are presented in the Supplementary material.
# Figure S1A and S1B. Flow cytometric analysis of cell cycle (A) and apoptosis (B) of human malignant melanoma cells (G-361) after 24 h with 3a–3c (3, 10 and 30 µM). The bars 0 means control untreated cells, the bars 0+ means control with DMSO. Error bars are omitted for graph clarity. Experiment was repeated at least twice in duplicates.
# Figure S1A. Flow cytometric analysis of cell cycle of G-361 cancer cells.
# (1 picture or pasted object on this page, not shown here)
# [9] = Homo sapiens, HeLa, resazurin, read-out: Cytotoxicity IC50, HeLa
# [10] = individual runs, Table S1, read-out: Cytotoxicity IC50, HeLa, single repeated screening runs (italics)
# [11] = Homo sapiens, G-361, 72 h, resazurin, read-out: Cytotoxicity IC50, G-361
# [12] = individual runs, Table S1, read-out: Cytotoxicity IC50, G361, single repeated screening runs (italics)
# [13] = Homo sapiens, MCF7, 72 h, resazurin, read-out: Cytotoxicity IC50, MCF7
# [14] = Homo sapiens, G-361, resazurin, read-out: Cytotoxicity IC50, G-361
# [15] = Homo sapiens, MCF7, resazurin, read-out: Cytotoxicity IC50, MCF7
# [16] = Homo sapiens, HeLa, individual runs, Table S1, read-out: Cytotoxicity IC50, HeLa, single repeated screening runs (italics)
# [17] = individual runs, Table S1, read-out: Cytotoxicity IC50, MCF7, single repeated screening runs (italics)
melting point,Structure (SMILES),"IC50 [1, 9]","IC50 [1, 10]","IC50 [2, 11]","IC50 [2, 12]","IC50 [3, 13]",Effect on cell cycle ([4]; c = 30 µM),IC50 at 72 h [6],IC50 [7],"IC50 [1, 16]",further results
139 to 140 °C,CC(=O)O[C@H]1CC[C@]2(C)[C@H]3CC=C4[C@@H]5CC(C)(C)CC[C@]5(C(=O)NCCc5c[nH]c6cc(F)ccc56)CC[C@@]4(C)[C@]3(C)CC[C@H]2C1(C)C [Compound 3b],6.7 ± 1.4 µM,7.7 µM and 13.1 µM and 5.7 µM,15.9 ± 6.6 µM,> 50 µM and 23 µM and 9.9 µM and 14.9 µM,> 50 µM,increased the number of cells in the G2/M phase,> 50 µM,> 50 µM,,Induction of apoptosis (apoptotic cells) ([4]; c = 10 µM): up to 6.4%; Induction of caspase-3/7 activity [5]: up to 4.6 times; Level of apoptotic cells in subG1 phase [8]: increased the level of apoptotic cells; Effect on cell cycle ([8]; c = 10 µM): increase of accumulation of the S-phase cells
,NCCc1c[nH]c2ccccc12 [tryptamine],> 50 µM,,,,,,> 50 µM,> 50 µM,,"IC50 [2, 14]: > 50 µM; IC50 [3, 15]: > 50 µM"
,"CC1(C)CC[C@]2(C(=O)O)CC[C@]3(C)C(=CC[C@@H]4[C@@]5(C)CC[C@H](O)C(C)(C)[C@@H]5CC[C@]43C)[C@@H]2C1 [Compound 1, (3β)-3-hydroxyolean-12-en-28-oic acid, reference compound]",> 50 µM,,> 50 µM,,> 50 µM,,> 50 µM,> 50 µM,,
149 to 150 °C,CC1(C)CCC2(C(=O)NCCc3c[nH]c4cc(F)ccc34)CCC3(C)C(=CCC4C5(C)CCC(O)C(C)(C)C5CCC43C)C2C1 (stereo not drawn) [Compound 4b],27.9 ± 0.8 µM,28.5 µM and > 50 µM,> 50 µM,,> 50 µM,,> 50 µM,> 50 µM,27.3 µM,"IC50 ([3]; Homo sapiens, MCF7, 72 h, individual runs, Table S1, read-out: Cytotoxicity IC50, MCF7, single repeated screening runs (italics)): 44.5 µM; IC50 [3, 17]: > 50 µM"
138 to 139 °C,CC(=O)O[C@H]1CC[C@]2(C)[C@H]3CC=C4[C@@H]5CC(C)(C)CC[C@]5(C(=O)NCCc5c[nH]c6ccc(F)cc56)CC[C@@]4(C)[C@]3(C)CC[C@H]2C1(C)C [Compound 3c],12.2 ± 4.7 µM,10.4 µM and 17.6 µM and 8.7 µM,> 50 µM,,> 50 µM,increased the number of cells in the G2/M phase,> 50 µM,> 50 µM,,Induction of apoptosis (apoptotic cells) ([4]; c = 30 µM): 2.7%; Effect on cell cycle ([8]; c = 3 µM): increase of accumulation of the S-phase cells
,"CC(=O)O[C@H]1CC[C@]2(C)[C@H]3CC=C4[C@@H]5CC(C)(C)CC[C@]5(C(=O)NCCc5c[nH]c6ccccc56)CC[C@@]4(C)[C@]3(C)CC[C@H]2C1(C)C [Compound 3a, Tryptamine amide of (3β)-3-(acetyloxy)olean-12-en-28-oic acid]",8.7 ± 0.4 µM,9 µM,9 ± 0.4 µM,9.2 µM,> 50 µM,cell cycle arrest in the G2/M phase,> 50 µM,> 50 µM,8.4 µM,"IC50 ([2]; Homo sapiens, G-361, 72 h, individual runs, Table S1, read-out: Cytotoxicity IC50, G361, single repeated screening runs (italics)): 8.7 µM; Induction of apoptosis (apoptotic cells) ([4]; c = 30 µM): 4%; Induction of caspase-3/7 activity [5]: up to 4 times; Level of apoptotic cells in subG1 phase [8]: up to 7.7%; Effect on cell cycle ([8]; c = 10 µM): increase of accumulation of the S-phase cells"
,CC1(C)CCC2(C(=O)NCCc3c[nH]c4ccccc34)CCC3(C)C(=CCC4C5(C)CCC(O)C(C)(C)C5CCC43C)C2C1 (stereo not drawn) [Compound 4a],> 50 µM,20.4 µM and > 50 µM (2×),> 50 µM,> 50 µM (2×) and 19.7 µM,> 50 µM,,> 50 µM,> 50 µM,,
,"CC(=O)O[C@H]1CC[C@]2(C)[C@H]3CC=C4[C@@H]5CC(C)(C)CC[C@]5(C(=O)O)CC[C@@]4(C)[C@]3(C)CC[C@H]2C1(C)C [Compound 2, (3β)-3-(acetyloxy)olean-12-en-28-oic acid]",> 50 µM,,,,,,> 50 µM,> 50 µM,,"IC50 [2, 14]: > 50 µM; IC50 [3, 15]: > 50 µM"
147 to 148 °C,CC1(C)CCC2(C(=O)NCCc3c[nH]c4ccc(F)cc34)CCC3(C)C(=CCC4C5(C)CCC(O)C(C)(C)C5CCC43C)C2C1 (stereo not drawn) [Compound 4c],20.3 ± 7.6 µM,29 µM and 17.1 µM,> 50 µM,,13.5 ± 3.3 µM,,> 50 µM,> 50 µM,14.9 µM,"IC50 [3, 17]: 31.8 µM and > 50 µM and 11.2 µM and 15.8 µM"
